According to US20240287074A1, “SALTS AND CRYSTALS” (Kinoxis Therapeutics Pty Ltd, priority 2020, published 2024):
“Also recorded” adds a separate entry of the source. Counter-ions that a name gives are not always drawn. Marks after values point to notes of the source that are not given here.

Legend:
[1] = Primary salt screen: XRPD pattern after drying and after 40° C./75% RH; type: physicochemical
Experimental: The following procedure was used: • Approximately 30 mg of 1-methyl-1,4,5,10-tetrahydropyrazolo[3,4-b][1,5]benzodiazepine freebase was weighed into 5×1.5 mL glass vials. • 300 μL of selected solvent system was added to each vial to form a mobile slurry, and a beige slurry was observed. • 1.05 (or 0.525 for the hemi experiments) equivalents of acid counterion (see Table 1) was added to each sample and initial observations were recorded. • The samples were temperature cycled between ambient and 40° C. in 4-hour cycles for about 72 hours. • The samples were collected, and observations made. • Samples in which solids were observed were filtered via centrifugation and the solids were loaded onto a multi-well XRPD plate and analyzed by XRPD. • Samples in which no solids were observed were uncapped and left undisturbed to allow evaporation at ambient temperature.

[2] = 1-week stability studies (XRPD, HPLC); type: physicochemical; settings: 1 week; ambient temperature, light and humidity; 40° C./75% RH; 80° C.
Experimental: The isolated 1-methyl-1,4,5,10-tetrahydropyrazolo[3,4-b][1,5]benzodiazepine freebase was characterized by TG/DTA, DSC, DVS with post-DVS, XRPD, HPLC, ^1H NMR and LC-MS, as per the methods detailed above. The 1-methyl-1,4,5,10-tetrahydropyrazolo[3,4-b][1,5]benzodiazepine freebase was stored at 40° C./75% relative humidity (RH) for 1 week to determine the stability of the material at increased RH and to identify potential hydrate formation.
One-week stability studies were conducted on the freebase (example 1), phosphate form 1 (example 3) and L-tartrate form 1 (example 5) salts using the following procedures: • Approximately 20 mg of each form was weighed into 3×2 mL glass vials. • One vial for each form was stored under the following conditions for 1-week: • 1. Ambient temperature, light and humidity (unsealed vial) • 2. 40° C./75% RH (unsealed vial) • 3. 80° C. (sealed vial) • The samples were collected after 1-week and observations were made. • The solids were analyzed by XRPD and HPLC.

[3] = Salt disproportionation studies in deionized water; type: physicochemical; settings: about 24 hours
Experimental: The following procedure was used during the salt disproportionation studies: • Approximately 20 mg of phosphate form 1 (Example 3) and L-tartrate form 1 (Example 5) were weighed into 2 mL glass vials. • Deionized water was added to each sample in 100 μL aliquots until a mobile slurry was observed. • The slurries were agitated at ambient temperature for about 24 hours. • The slurries were collected and filtered via centrifugation. • The isolated solids were analyzed by XRPD. • The pH of the mother liquors were recorded.

[4] = Hydration studies in methanol/water mixtures; type: physicochemical; settings: MeOH/water mixtures, water activity 0.2, 0.6, 0.8, about 24 hours
Experimental: The following procedure was used during the hydration studies: • Approximately 20 mg of phosphate form 1 (Example 3) and L-tartrate form 1 (Example 5) were weighed into 2 mL glass vials. • Selected methanol/deionized water mixtures (see Table 5) were added to each sample in 100 μL aliquots until a mobile slurry was observed. • The slurries were agitated at ambient temperature for about 24 hours. • The slurries were collected and filtered via centrifugation. • The isolated solids were analyzed by XRPD. • The pH of the mother liquors were recorded.

[5] = Thermodynamic solubility in PBS buffer pH 7.4; type: physicochemical
Experimental: The thermodynamic solubility of freebase (example 1), phosphate form 1 (example 3) and L-tartrate form 1 (example 5) were assessed in phosphate buffered saline (PBS) buffer at pH 7.4 according to the following procedure: • Approximately 30 mg of each form was weighed into 2 mL glass vials. • 100 μL of buffer solution was added to each vial until partial dissolution was observed. • The observed slurries were agitated at ambient temperature for about 24 hours. • The samples were collected, and observations were recorded. • The samples were filtered via centrifugation. • The pH of the mother liquors were recorded. • The concentration of the mother liquors were recorded by HPLC.

[6] = Oral pharmacokinetics in rats; type: in vivo; settings: male Sprague Dawley rats; for Plasma AUC0-inf/Dose / Plasma Cmax/Dose: dose-normalised; for Plasma AUC0-inf/Dose / Plasma Cmax/Dose / % Dose in urine: listed as Phosphate salt; for Apparent t1/2 / BA % / Plasma AUC0-inf / Plasma Cmax / Tmax / % Dose in urine: 5 mg/kg target dose (freebase equivalent), 5 mg/kg; for Apparent t1/2 / BA % / Plasma AUC0-inf / Plasma Cmax / Tmax: mean ± SD, n = 3, listed as Phosphate salt; for % Dose in urine: urine up to 24 h
Experimental: N=3 rats were run in each of the four conditions: • (1) Di-HCL salt in saline • (2) Di-HCL salt in methocel • (3) Phosphate form 1 in saline • (4) Phosphate form 1 in methocel
On the day of dosing the solid compounds were dissolved in either Saline (0.9%) or 0.5% hydroxypropyl methylcellulose (Methocel E3 Premium LV) in Milli-Q water. The formulations were then thoroughly vortexed to produce colourless solutions.
Overnight-fasted rats with adlibitum access to water were administered their dose of the various forms of the compound of the invention via oral gavage (PO) at a dose volume of 3 ml/kg and a dose of 5 mg/kg freebase equivalent. Food access was re-instated 4 hours (h) post-dose. Samples of arterial blood were collected up to 24 h post-dose. After collection, samples were centrifuged, plasma was removed and stored frozen at −80° C. before being analysed by LC-MS. Urine samples were collected at pre, 0-4 h, 4-7 h and 7-24 h post-dose and were analysed by LC-MS following extraction.

Cn1ncc2c1Nc1ccccc1NC2 [Phosphate form 1, phosphoric acid addition salt of 1-methyl-1,4,5,10-tetrahydropyrazolo[3,4-b][1,5]benzodiazepine]
thermal stability and hygroscopicity ([1]; conclusion of salt screen): acceptable thermal stability and hygroscopicity
Post-Drying (XRPD pattern) ([1]; oven at 40° C. for about 24 hours, listed as Phosphate pattern 1): Pattern 1
Comments (stability) ([1]; salt screen summary): Good
Post 40° C./75% RH (XRPD pattern) ([1]; stability chamber at 40° C./75% RH for about 24 hours, listed as Phosphate pattern 1): Pattern 1
changes in form by XRPD [2]: no changes in form
changes in purity by HPLC [2]: did not identify any significant changes in purity
change in XRPD pattern ([3]; material slurried in water): No change in XRPD pattern
salt disproportionation ([3]; slurry in deionized water, ambient temperature): Salt disproportionation was not observed; also recorded: No evidence
change in XRPD pattern [4]: No change in XRPD pattern
hydrate formation [4]: Hydrate formation was not observed; also recorded: No evidence
solubility ([5]; PBS buffer at pH 7.4, ambient temperature, about 24 hours, HPLC): 7400 µg/mL
pH (t = 24 h) ([5]; mother liquor of PBS pH 7.4 slurry): 3.48
Plasma AUC0-inf/Dose ([6]; Methocel): 0.85 ± 0.18 (μg*h/mL)/(mg/kg)
Plasma Cmax/Dose ([6]; Methocel): 0.41 ± 0.05 (μg/mL)/(mg/kg)
Plasma AUC0-inf/Dose ([6]; Saline): 1.02 ± 0.36 (μg*h/mL)/(mg/kg)
Plasma Cmax/Dose ([6]; Saline): 0.43 ± 0.03 (μg/mL)/(mg/kg)
Apparent t1/2 ([6]; Methocel): 36 ± 1.2 min
BA % ([6]; Methocel): 93.2 ± 20^b %
Plasma AUC0-inf ([6]; Methocel): 4160 ± 880 ng·h/mL
Plasma Cmax ([6]; Methocel): 2010 ± 250 ng/mL
Tmax ([6]; Methocel): 15 ± 0 min
% Dose in urine ([6]; Methocel): 0.222 ± 0.093%
Apparent t1/2 ([6]; Saline): 48.6 ± 12 min
BA % ([6]; Saline): 111 ± 40^b %
Plasma AUC0-inf ([6]; Saline): 4950 ± 1750 ng·h/mL
Plasma Cmax ([6]; Saline): 2090 ± 140 ng/mL
Tmax ([6]; Saline): 30 ± 24 min
% Dose in urine ([6]; Saline): 0.395^d %
exposure profile compared with dihydrochloride salt form ([6]; saline or methocel vehicle): same exposure profile
